# Results taken from patent publication US8722661B2, “Pyrrolopyrimidone and pyrrolopyridone inhibitors of tankyrase” (Genentech, Inc., priority 2012, dated 2014).
# Assays:
# [1] = target: T1, PARP1 (His6-PARP1, full length) (Homo sapiens, UniProt P09874); assay: μHTS-TNKS-IWR2 TR-FRET binding assay with His6-PARP1 in place of TNKS1; conditions: Table I
# T1 construct: His6-PARP1 (full length)
# Experimental: (§1) μHTS-TNKS-IWR2TR-FRET Binding Assay
# (§2) (10 μL/well in BD1536-well plate, a single point)
# (§3) Alternatively, in place of His6-TNKS1 can use either His6-tankyrase 2 (construct: 934-1166) (His6-TNKS2) or His6-PARP1 (full length).
# (§4) Biotin-IWR2: 10 mM Biotin-IWR2 stock in DMSO, stored at −20° C.
# Positive control: 10 mM […] in DMSO, stored at −20° C.
# (§5) Prepare Biotinylated IWR2 stock solution (3.33× stock) for TOTL and cpd wells: 200 nM Biotin-IWR2 in 5% DMSO/AB1b buffer
# (§6) Prepare POSITIVE CONTROL well stock solution (3.33× stock): 200 nM XAV939 in 200 nM Biotin-IWR2/5% DMSO/AB1b buffer
# (§7) (Alternatively, use TNKS2 or PARP1 stock solutions.)
# (§8) Prepare Eu/APC stock solution (5× stock): 3.5 nM Eu-SA/50 nM APC-His6Ab in AB2 buffer
# (§9) Add 25 μL/well 1.5% DMSO/AB1c buffer in each compound well to the compound concentration at 74 μM in 8.8% DMSO/AB1c buffer or in the 2 μL DMSO CONTROL wells (BLANK, TOTAL and POSITIVE wells) in the compound plate.
# (§10) Transfer 3 μL/well above solution (solution 1,2,3) to an empty assay plate (BD1536-well plate) as follows:
# (§11) Transfer 3 μL/well of the above diluted compound solutions or compound dilution buffer to the above assay plate.
# (§12) Add 2 μL/well of 300 nM TNKS stock solution (4) to every well in the above assay plate.
# (§13) Incubate the assay plate at 26° C. for 30 minutes.
# (§14) Incubate the assay plate at 26° C. for 60 minutes.
# (§15) Read the assay plate immediately at excitation wavelength of 330 nm and emission wavelength of […] in time resolved fluorescence mode.
# (§16) Representative compound data for assays are listed below in Table I. Values are in uM.
# tankyrase 2 (His6-TNKS2) = target: T2, tankyrase 2 (His6-TNKS2) (Homo sapiens, UniProt Q9H2K2); assay: μHTS-TNKS-IWR2 TR-FRET binding assay with His6-TNKS2 in place of TNKS1; conditions: Table I
# T2 construct: His6-tankyrase 2 (construct: 934-1166)
# Experimental: as §1, §2, §3, §4
# Positive control: 10 mM XAV 939 in DMSO, stored at −20° C.
# as §5, §6, §7, §8, §9, §10, §11, §12, §13, §14, §15, §16
# Tankyrase 1 (TNKS1) = target: T3, Tankyrase 1 (TNKS1) (Homo sapiens, UniProt O95271); assay: μHTS-TNKS-IWR2 TR-FRET binding assay (TNKS1)
# T3 construct: construct: 1088-1327, 1266M
# Experimental: as §1, §2
# Reagents and Stock Solutions
# as §4
# Assay buffer 1a (AB 1a) for TNKS dilution: 50 mM Tris, pH 7.4, 100 mM sodium chloride solution, 1 mM magnesium chloride solution, 1 mM DL-dithiothreitol solution, 0.2 mg/mL bovine serum albumin solution, 0.025% NP-40.
# Assay buffer 1b (AB 1b) for Biotin-IWR2 dilution: 50 mM Tris, pH 7.4, 100 mM sodium chloride solution, 1 mM magnesium chloride solution, 1 mM DL-dithiothreitol solution, 0.2 mg/mL bovine serum albumin solution, 0.05% NP-40
# Assay buffer 1c (AB 1c) for compound dilution: 50 mM Tris, pH 7.4, 100 mM sodium chloride solution, 1 mM magnesium chloride solution, 1 mM DL-dithiothreitol solution, 0.2 mg/mL bovine serum albumin solution
# Assay buffer 2 (AB2) for Eu/APC: 50 mM Tris, pH 7.4, 100 mM sodium chloride solution, 1 mM magnesium chloride solution, 0.2 mg/mL bovine serum albumin solution
# Reagent Stock Solution Preparation
# Prepare BLANK well stock solution: 5% DMSO/AB1b buffer
# Prepare TNKS1 stock solution (5× stock): 300 nM TNKS in AB1a buffer
# as §10
# TOTL and cpd wells: Solution 1 (Biotin-IWR2):
# BLNK wells: Solution 2 (No Biotin-IWR2):
# POSITIVE CONTROL wells: Solution 3 (Biotin-IWR2+XAV939)
# as §11, §12
# Centrifuge the assay plate at 2100 rpm for 2 minutes.
# as §13, §14
# Tankyrase 1 = target: T4, Tankyrase 1 (Homo sapiens, UniProt O95271); assay: TNKS1 NAM assay (NADase activity, released nicotinamide by LC-MS); format: biochemical; conditions: Table I, value marked with superscript 2 (footnote not given), taken as the second assay
# T4 sequence (O95271 1-1327): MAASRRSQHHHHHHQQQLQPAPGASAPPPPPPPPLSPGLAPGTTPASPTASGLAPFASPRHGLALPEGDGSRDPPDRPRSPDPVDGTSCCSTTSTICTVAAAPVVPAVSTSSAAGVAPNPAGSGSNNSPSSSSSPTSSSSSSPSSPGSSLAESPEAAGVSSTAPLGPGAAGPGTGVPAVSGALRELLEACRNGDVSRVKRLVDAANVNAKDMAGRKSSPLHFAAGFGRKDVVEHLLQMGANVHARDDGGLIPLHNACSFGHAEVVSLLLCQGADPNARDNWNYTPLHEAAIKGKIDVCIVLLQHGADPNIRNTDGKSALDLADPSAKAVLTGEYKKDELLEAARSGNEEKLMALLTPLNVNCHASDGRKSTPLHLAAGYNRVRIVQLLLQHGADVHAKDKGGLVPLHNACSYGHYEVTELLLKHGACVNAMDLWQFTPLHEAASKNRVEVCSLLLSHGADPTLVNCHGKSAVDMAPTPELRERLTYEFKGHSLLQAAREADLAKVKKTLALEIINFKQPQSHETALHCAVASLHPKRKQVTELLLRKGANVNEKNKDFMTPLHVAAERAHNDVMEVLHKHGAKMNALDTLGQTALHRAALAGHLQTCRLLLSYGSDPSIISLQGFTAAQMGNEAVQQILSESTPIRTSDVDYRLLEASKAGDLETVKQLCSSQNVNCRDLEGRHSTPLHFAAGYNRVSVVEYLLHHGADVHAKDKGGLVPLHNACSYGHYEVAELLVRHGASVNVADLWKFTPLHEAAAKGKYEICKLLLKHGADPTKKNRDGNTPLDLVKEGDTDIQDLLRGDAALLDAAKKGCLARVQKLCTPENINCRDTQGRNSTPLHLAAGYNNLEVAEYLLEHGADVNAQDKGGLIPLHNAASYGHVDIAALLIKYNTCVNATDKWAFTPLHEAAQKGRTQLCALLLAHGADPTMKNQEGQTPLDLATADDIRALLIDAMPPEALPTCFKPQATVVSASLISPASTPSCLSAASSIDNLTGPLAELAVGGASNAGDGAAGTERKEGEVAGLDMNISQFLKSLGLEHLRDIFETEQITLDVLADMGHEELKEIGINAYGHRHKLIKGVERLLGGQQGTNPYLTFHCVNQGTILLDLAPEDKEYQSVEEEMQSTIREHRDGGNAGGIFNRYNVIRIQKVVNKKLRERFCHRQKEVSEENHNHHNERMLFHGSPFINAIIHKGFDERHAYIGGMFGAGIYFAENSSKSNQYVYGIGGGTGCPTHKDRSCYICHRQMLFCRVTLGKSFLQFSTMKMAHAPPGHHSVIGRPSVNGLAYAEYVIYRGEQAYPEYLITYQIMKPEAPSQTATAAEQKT
# Experimental: NADase activity of Tankyrase 1 was measured by quantifying released nicotinamide using liquid chromatography mass spectrometry. Varying concentrations of experimental compounds were incubated in 10 μL reactions containing 25 nM recombinant Tankyrase 1, 1 mM NAD+, 5 μM d4-nicotinamide internal standard, 2% DMSO, 50 mM Tris pH 7.5, 5 mM CaCl2, and 0.01% Triton X-100 for 1 h at RT. Reactions were quenched by mixing 2 μL of the reaction mixture with 98 μL of 0.05% formic acid. 1 μL of quenched reaction was loaded onto a reverse phase BEH-Phenyl column (Waters) pre-equilibrated with 1 mM ammonium formate and eluted with a linear gradient to 80% acetonitrile. Compound IC50s were determined by four-parameter curve fitting.
# as §16
# T1 sequence (P09874 whole entry): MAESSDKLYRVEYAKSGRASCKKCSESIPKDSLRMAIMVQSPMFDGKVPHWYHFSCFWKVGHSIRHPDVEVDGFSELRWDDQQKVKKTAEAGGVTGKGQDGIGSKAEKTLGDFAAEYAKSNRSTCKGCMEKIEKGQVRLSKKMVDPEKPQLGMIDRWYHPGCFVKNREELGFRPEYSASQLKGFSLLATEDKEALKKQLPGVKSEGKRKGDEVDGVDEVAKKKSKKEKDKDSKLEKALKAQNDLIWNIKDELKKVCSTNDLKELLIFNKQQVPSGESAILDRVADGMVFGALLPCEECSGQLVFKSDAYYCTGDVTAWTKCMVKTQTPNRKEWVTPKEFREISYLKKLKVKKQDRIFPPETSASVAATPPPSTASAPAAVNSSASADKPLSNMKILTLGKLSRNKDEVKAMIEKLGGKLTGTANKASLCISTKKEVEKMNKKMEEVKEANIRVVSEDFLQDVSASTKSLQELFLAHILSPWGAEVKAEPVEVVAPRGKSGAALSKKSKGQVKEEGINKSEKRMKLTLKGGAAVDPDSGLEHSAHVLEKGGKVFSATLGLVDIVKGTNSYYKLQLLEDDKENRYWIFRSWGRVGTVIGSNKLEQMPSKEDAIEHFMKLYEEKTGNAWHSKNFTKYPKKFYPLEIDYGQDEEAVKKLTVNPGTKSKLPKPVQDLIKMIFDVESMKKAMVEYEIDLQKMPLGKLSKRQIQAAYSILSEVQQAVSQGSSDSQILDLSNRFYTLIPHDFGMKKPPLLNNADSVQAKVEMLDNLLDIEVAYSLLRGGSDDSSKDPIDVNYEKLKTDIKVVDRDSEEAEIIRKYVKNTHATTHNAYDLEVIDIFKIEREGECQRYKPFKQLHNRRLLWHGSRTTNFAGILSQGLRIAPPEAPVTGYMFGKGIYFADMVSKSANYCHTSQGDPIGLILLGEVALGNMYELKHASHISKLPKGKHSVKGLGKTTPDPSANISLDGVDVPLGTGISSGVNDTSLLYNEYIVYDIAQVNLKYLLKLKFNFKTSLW
# T2 sequence (Q9H2K2 934-1166): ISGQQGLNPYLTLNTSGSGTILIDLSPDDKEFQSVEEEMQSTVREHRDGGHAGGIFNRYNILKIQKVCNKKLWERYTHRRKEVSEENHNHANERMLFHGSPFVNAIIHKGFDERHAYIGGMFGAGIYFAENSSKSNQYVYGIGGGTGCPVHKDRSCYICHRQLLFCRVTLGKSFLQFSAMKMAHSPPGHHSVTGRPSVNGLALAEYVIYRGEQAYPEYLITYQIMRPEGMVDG
IC50 [1] [nM],IC50 (tankyrase 2 (His6-TNKS2)) [nM],IC50 (Tankyrase 1 (TNKS1)) [nM],IC50 (Tankyrase 1) [nM],SMILES
> 50000,163,176,,"CCn1ccc2c(=O)[nH]c(-c3ccc(C(F)(F)F)cc3)nc21 [Example 50, 7-Ethyl-2-(4-trifluoromethyl-phenyl)-3,7-dihydro-pyrrolo[2,3-d]pyrimidin-4-one]"
> 50000,640,535,,"CCCn1ccc2c(=O)[nH]c(-c3ccc(C(F)(F)F)cc3)nc21 [Example 51, 7-Propyl-2-(4-trifluoromethyl-phenyl)-3,7-dihydro-pyrrolo[2,3-d]pyrimidin-4-one]"
> 50000,730,750,,"C=CCn1ccc2c(=O)[nH]c(-c3ccc(C(F)(F)F)cc3)nc21 [Example 52, 7-Allyl-2-(4-trifluoromethyl-phenyl)-3,7-dihydro-pyrrolo[2,3-d]pyrimidin-4-one]"
2380,168,240,,"O=c1[nH]c(-c2ccc(C(F)(F)F)cc2)nc2c1ccn2CCC(O)CO (stereo not shown) [Example 53, 7-(3,4-Dihydroxy-butyl)-2-(4-trifluoromethyl-phenyl)-3,7-dihydro-pyrrolo[2,3-d]pyrimidin-4-one]"
13500,237,425,,"O=c1[nH]c(-c2ccc(C(F)(F)F)cc2)nc2c1ccn2CC(O)CO (stereo not shown) [Example 54, 7-(2,3-Dihydroxy-propyl)-2-(4-trifluoromethyl-phenyl)-3,7-dihydro-pyrrolo[2,3-d]pyrimidin-4-one]"
449,40,37,,"CCNC(=O)c1ccc(N2CCN(c3nc4c(ccn4C)c(=O)[nH]3)CC2)cc1 [Example 55, N-Ethyl-4-[4-(7-methyl-4-oxo-4,7-dihydro-3H-pyrrolo[2,3-d]pyrimidin-2-yl)-piperazin-1-yl]-benzamide]"
> 50000,9160,7800,,"Cn1ccc2c(=O)[nH]c(-n3cccn3)nc21 [Example 56, 7-Methyl-2-pyrazol-1-yl-3,7-dihydro-pyrrolo[2,3-d]pyrimidin-4-one]"
1880,65,48,,"O=c1[nH]c(-c2ccc(C(F)(F)F)cc2)nc2c1ccn2CO [Example 57, 7-Hydroxymethyl-2-(4-trifluoromethyl-phenyl)-3,7-dihydro-pyrrolo[2,3-d]pyrimidin-4-one]"
1310,100,108,,"Cn1ccc2c(=O)[nH]c(N3CC(C)(c4ccccc4)C3)nc21 [Example 58, 7-Methyl-2-(3-methyl-3-phenyl-azetidin-1-yl)-3,7-dihydro-pyrrolo[2,3-d]pyrimidin-4-one]"
> 50000,619,545,,"O=c1[nH]c(-c2ccc(C(F)(F)F)cc2)nc2c1ccn2C1CC1 [Example 59, 7-Cyclopropyl-2-(4-trifluoromethyl-phenyl)-3,7-dihydro-pyrrolo[2,3-d]pyrimidin-4-one]"
10600,55,33,,"O=c1[nH]c(N2CCN(c3ccccc3F)CC2)nc2c1ccn2CO [Example 60, 2-[4-(2-Fluoro-phenyl)-piperazin-1-yl]-7-hydroxymethyl-3,7-dihydro-pyrrolo[2,3-d]pyrimidin-4-one]"
14800,28,34,,"O=c1[nH]c(N2CCN(c3c(F)cccc3F)CC2)nc2c1ccn2CC(O)CO (stereo not shown) [Example 61, 2-(4-(2,6-difluorophenyl)piperazin-1-yl)-7-(2,3-dihydroxypropyl)-3H-pyrrolo[2,3-d]pyrimidin-4(7H)-one]"
3920,154,117,,"Cn1ccc2c(=O)[nH]c(-c3ccccc3)nc21 [Example 62, 7-Methyl-2-phenyl-3,7-dihydro-pyrrolo[2,3-d]pyrimidin-4-one]"
,,,9.67,"COCCOc1cc(F)c(N2CCN(c3nc4c(ccn4CCO)c(=O)[nH]3)CC2)c(F)c1 [Example 63, 2-[4-[2 6-difluoro-4-(2-methoxyethoxy)phenyl]piperazin-1-yl]-7-(2-hydroxyethyl)-3H-pyrrolo[2,3-d]pyrimidin-4-one]"
